Data as given in publication PMC9358932 (Chemical Science, 2022).
Where two headings read alike, the source gives them in different places.

Assays:
Cp149 dimer = assay: Solution-state NMR chemical shift perturbations; assay type: binding, Hepatitis B virus (HBV); settings: 4 molar equivalents of compound
[1] = biological target: T1, Cp149 reassembled capsids (Hepatitis B virus genotype D subtype ayw, UniProt P03146); assay: biochemical; assay type: binding, Hepatitis B virus (HBV); settings: ITC, 50 mM HEPES pH 7.5, 298 K
[2] = biological target: T1, Cp149 reassembled capsids; settings: ITC, TX100 value taken from previous data; cited from earlier work
many organisms = settings: cited from earlier work

T1 sequence (P03146 1-149): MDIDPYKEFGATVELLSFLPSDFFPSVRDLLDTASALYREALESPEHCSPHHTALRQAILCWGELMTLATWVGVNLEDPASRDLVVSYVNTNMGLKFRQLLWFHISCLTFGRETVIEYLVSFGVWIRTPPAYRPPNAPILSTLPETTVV

Compound	CSPs / pocket binding in words (Cp149 dimer)	ΔH [1]	Kd [1]	other results
Reduced Triton X-100 [Compound 1b]	very small CSPs			
CCCc1ccc(O)cc1 [Compound 4b, 4-propylphenol]		-7 ± 4 kcal/mol	14 ± 7 µM	
4-hexylaniline [Compound 2e]	smallest CSPs			
4’-heptylacetophenone [Compound 2d]	rather small CSPs			
CC(C)c1ccc(O)cc1 [Compound 4a, 4-isopropylphenol]		-5 ± 3 kcal/mol	18 ± 7 µM	
NP40 [Compound 6g]		-3.41 ± 0.09 kcal/mol		
CCCCCCc1ccc(O)cc1 [Compound 2a, 4-hexylphenol]		-6.0 ± 0.6 kcal/mol	13 ± 3 µM	
CCC(C)(C)c1ccc(O)cc1 [Compound 4c, 4-tert-amylphenol]		-12.7 ± 1.2 kcal/mol	30 ± 4 µM	
Triton X-100 [Compound 1a]				Kd [2]: 8.3 ± 0.5 µM; ΔH [2]: -4.59 ± 0.05 kcal/mol
CC(C)(C)CC(C)(C)c1ccc(O)cc1 [Compound 1c, 4-tert-octylphenol]	as high as those derived for TX100	-4.79 ± 0.14 kcal/mol	7.5 ± 0.5 µM	toxicity / environmental pollutant (many organisms): toxic to many organisms
